Reference: ChEMBL document CHEMBL4649985, “Generation of a Selective Small Molecule Inhibitor of the CBP/p300 Bromodomain for Leukemia Therapy” (Cancer Res, 2015)
Values joined by “and” are separate entries in the source; they are usually repeats but may differ in a detail not shown here. Equal values may be shown once.

How the values were obtained:
[1] = target: SWI/SNF-related matrix-associated actin-dependent regulator of chromatin subfamily A member 2 (Homo sapiens) (UniProt P51531); details: Compound concentration 10.0 uM, Protein concentration 2.0 uM
[2] = target: Protein polybromo-1 (Homo sapiens) (UniProt Q86U86); assay: Thermal Shift Assay. Domain start/stop: R487-D598; details: Compound concentration 10.0 uM, Protein concentration 2.0 uM
Protein polybromo-1 (Homo sapiens), sequence (Q86U86 whole entry, the tested form may be a part): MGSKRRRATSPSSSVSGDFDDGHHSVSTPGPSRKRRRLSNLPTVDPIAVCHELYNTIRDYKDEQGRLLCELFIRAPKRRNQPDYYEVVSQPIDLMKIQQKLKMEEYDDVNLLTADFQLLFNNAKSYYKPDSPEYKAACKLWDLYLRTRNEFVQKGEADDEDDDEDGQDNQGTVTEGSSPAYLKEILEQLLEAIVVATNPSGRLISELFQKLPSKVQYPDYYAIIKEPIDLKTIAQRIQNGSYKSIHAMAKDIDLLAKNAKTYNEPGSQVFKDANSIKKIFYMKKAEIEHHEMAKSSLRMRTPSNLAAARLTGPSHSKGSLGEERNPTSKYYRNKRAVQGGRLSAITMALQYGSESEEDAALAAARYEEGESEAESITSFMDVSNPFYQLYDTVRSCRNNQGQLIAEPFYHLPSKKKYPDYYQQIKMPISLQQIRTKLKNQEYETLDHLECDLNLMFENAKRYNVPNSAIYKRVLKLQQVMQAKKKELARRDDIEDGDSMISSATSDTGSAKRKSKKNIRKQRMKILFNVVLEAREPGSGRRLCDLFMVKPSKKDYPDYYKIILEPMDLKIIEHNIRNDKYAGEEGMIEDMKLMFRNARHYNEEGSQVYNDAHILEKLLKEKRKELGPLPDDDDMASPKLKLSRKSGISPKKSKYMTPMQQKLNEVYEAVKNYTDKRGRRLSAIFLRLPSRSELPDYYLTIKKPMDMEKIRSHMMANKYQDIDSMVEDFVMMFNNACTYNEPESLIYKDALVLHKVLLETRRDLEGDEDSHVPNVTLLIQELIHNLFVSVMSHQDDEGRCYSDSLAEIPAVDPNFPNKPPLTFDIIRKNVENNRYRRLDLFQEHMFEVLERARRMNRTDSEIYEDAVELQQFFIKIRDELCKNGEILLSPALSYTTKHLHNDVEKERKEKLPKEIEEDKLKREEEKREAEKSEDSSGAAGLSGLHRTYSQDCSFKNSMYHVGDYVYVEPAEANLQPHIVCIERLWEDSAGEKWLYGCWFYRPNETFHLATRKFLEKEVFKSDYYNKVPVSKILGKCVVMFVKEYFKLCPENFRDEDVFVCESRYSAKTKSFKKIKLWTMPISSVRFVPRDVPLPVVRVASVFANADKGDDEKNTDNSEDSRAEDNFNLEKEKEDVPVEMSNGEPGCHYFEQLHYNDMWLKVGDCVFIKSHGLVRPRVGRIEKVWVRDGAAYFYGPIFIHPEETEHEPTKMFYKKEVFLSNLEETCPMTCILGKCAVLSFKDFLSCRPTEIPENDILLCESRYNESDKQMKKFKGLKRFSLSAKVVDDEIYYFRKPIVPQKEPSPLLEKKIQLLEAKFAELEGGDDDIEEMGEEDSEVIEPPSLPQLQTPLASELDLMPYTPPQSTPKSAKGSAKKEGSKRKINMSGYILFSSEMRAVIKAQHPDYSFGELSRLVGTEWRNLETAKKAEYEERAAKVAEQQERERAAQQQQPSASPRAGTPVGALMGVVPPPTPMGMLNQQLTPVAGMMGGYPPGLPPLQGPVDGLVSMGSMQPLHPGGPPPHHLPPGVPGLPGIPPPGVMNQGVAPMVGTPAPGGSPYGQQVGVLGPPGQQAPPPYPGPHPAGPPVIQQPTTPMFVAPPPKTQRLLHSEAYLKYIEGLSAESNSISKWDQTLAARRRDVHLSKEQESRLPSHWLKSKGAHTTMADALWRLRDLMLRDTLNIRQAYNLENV

[3] = target: Bromodomain-containing protein 3 (Homo sapiens) (UniProt Q15059); details: Compound concentration 10.0 uM, Protein concentration 2.0 uM
Bromodomain-containing protein 3 (Homo sapiens), sequence (Q15059 2-726 limits assumed): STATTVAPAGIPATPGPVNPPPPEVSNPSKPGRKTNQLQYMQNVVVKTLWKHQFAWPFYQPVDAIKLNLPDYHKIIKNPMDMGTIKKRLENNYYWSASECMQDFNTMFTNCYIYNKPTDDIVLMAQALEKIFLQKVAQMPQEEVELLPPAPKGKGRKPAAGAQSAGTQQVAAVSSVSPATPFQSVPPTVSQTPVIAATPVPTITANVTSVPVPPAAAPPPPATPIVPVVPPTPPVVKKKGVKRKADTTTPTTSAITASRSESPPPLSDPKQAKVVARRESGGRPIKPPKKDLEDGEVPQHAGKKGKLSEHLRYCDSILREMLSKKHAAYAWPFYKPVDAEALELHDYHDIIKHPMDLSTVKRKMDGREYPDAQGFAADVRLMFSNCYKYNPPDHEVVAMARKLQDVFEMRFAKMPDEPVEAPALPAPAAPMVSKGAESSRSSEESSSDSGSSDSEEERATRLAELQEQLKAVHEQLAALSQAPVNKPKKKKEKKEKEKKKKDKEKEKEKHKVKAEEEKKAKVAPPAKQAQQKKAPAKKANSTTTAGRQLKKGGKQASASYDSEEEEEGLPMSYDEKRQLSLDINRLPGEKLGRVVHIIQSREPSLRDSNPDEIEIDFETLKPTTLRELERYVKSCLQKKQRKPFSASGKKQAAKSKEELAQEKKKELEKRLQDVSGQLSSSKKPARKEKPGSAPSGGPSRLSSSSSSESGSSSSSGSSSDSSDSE

[4] = target: Bromodomain and WD repeat-containing protein 3 (Homo sapiens) (UniProt Q6RI45); details: Compound concentration 10.0 uM, Protein concentration 2.0 uM
[5] = target: Transcription initiation factor TFIID subunit 1-like (Homo sapiens) (UniProt Q8IZX4); details: Compound concentration 10.0 uM, Protein concentration 2.0 uM
[6] = target: Chromatin remodeling regulator CECR2 (Homo sapiens) (UniProt Q9BXF3); details: Compound concentration 10.0 uM, Protein concentration 2.0 uM
[7] = target: Tripartite motif-containing protein 66 (Homo sapiens) (UniProt O15016); assay: Thermal Shift Assay. Domain start/stop: M1091-S1218; details: Compound concentration 10.0 uM, Protein concentration 2.0 uM
[8] = target: Protein polybromo-1 (Homo sapiens) (UniProt Q86U86); details: Compound concentration 10.0 uM, Protein concentration 2.0 uM
[9] = target: Bromodomain adjacent to zinc finger domain protein 1A (Homo sapiens) (UniProt Q9NRL2); details: Compound concentration 10.0 uM, Protein concentration 2.0 uM
[10] = target: T1, CREB-binding protein (Homo sapiens, UniProt Q92793); assay: Alphascreen assay. Binding to CREBBPA (domain start/stop: R1081-G1197) by alphascreen assay
[11] = target: SWI/SNF-related matrix-associated actin-dependent regulator of chromatin subfamily A member 4 (Homo sapiens) (UniProt P51532); details: Compound concentration 10.0 uM, Protein concentration 2.0 uM
[12] = target: Transcription initiation factor TFIID subunit 1 (Homo sapiens) (UniProt P21675); details: Compound concentration 10.0 uM, Protein concentration 2.0 uM
[13] = target: Bromodomain testis-specific protein (Homo sapiens) (UniProt Q58F21); details: Compound concentration 10.0 uM, Protein concentration 2.0 uM
[14] = target: Nuclear body protein SP140-like protein (Homo sapiens) (UniProt Q9H930); details: Compound concentration 10.0 uM, Protein concentration 2.0 uM
[15] = target: Bromodomain-containing protein 9 (Homo sapiens) (UniProt Q9H8M2); details: Compound concentration 10.0 uM, Protein concentration 2.0 uM
[16] = target: Bromodomain-containing protein 3 (Homo sapiens) (UniProt Q15059); assay: Thermal Shift Assay. Domain start/stop: P24-E144; details: Compound concentration 10.0 uM, Protein concentration 2.0 uM
[17] = target: Histone acetyltransferase p300 (Homo sapiens) (UniProt Q09472); details: Compound concentration 10.0 uM, Protein concentration 2.0 uM
[18] = target: Bromodomain and WD repeat-containing protein 1 (Homo sapiens) (UniProt Q9NSI6); details: Compound concentration 10.0 uM, Protein concentration 2.0 uM
[19] = target: Bromodomain-containing protein 1 (Homo sapiens) (UniProt O95696); details: Compound concentration 10.0 uM, Protein concentration 2.0 uM
[20] = target: Bromodomain adjacent to zinc finger domain protein 2B (Homo sapiens) (UniProt Q9UIF8); details: Compound concentration 10.0 uM, Protein concentration 2.0 uM
[21] = target: Bromodomain testis-specific protein (Homo sapiens) (UniProt Q58F21); details: Compound concentration 10.0 uM, Protein concentration 2.0 uM; remark: listed apart in the source
[22] = target: ATPase family AAA domain-containing protein 2B (Homo sapiens) (UniProt Q9ULI0); details: Compound concentration 10.0 uM, Protein concentration 2.0 uM
[23] = target: Protein polybromo-1 (Homo sapiens) (UniProt Q86U86); details: Compound concentration 10.0 uM, Protein concentration 2.0 uM; remark: listed apart in the source
[24] = target: Nucleosome-remodeling factor subunit BPTF (Homo sapiens) (UniProt Q12830); details: Compound concentration 10.0 uM, Protein concentration 2.0 uM
[25] = target: T2, Bromodomain-containing protein 4 (Homo sapiens, UniProt O60885); assay: Alphascreen assay. Binding to BRD4A (domain start/stop: N44-E168) by alphascreen assay
[26] = target: Transcription initiation factor TFIID subunit 1-like (Homo sapiens) (UniProt Q8IZX4); details: Compound concentration 10.0 uM, Protein concentration 2.0 uM; remark: listed apart in the source
[27] = target: PH-interacting protein (Homo sapiens) (UniProt Q8WWQ0); details: Compound concentration 10.0 uM, Protein concentration 2.0 uM
[28] = target: Protein polybromo-1 (Homo sapiens) (UniProt Q86U86); details: Compound concentration 10.0 uM, Protein concentration 2.0 uM; remark: listed apart in the source
[29] = target: Histone acetyltransferase KAT2B (Homo sapiens) (UniProt Q92831); details: Compound concentration 10.0 uM, Protein concentration 2.0 uM
[30] = target: Peregrin (Homo sapiens) (UniProt P55201); details: Compound concentration 10.0 uM, Protein concentration 2.0 uM
[31] = target: Bromodomain-containing protein 2 (Homo sapiens) (UniProt P25440); details: Compound concentration 10.0 uM, Protein concentration 2.0 uM
[32] = target: Transcription intermediary factor 1-alpha (Homo sapiens) (UniProt O15164); details: Compound concentration 10.0 uM, Protein concentration 2.0 uM
[33] = target: T1, CREB-binding protein; details: Compound concentration 10.0 uM, Protein concentration 2.0 uM
Target sequence in this assay (Q92793 2-2442 limits assumed): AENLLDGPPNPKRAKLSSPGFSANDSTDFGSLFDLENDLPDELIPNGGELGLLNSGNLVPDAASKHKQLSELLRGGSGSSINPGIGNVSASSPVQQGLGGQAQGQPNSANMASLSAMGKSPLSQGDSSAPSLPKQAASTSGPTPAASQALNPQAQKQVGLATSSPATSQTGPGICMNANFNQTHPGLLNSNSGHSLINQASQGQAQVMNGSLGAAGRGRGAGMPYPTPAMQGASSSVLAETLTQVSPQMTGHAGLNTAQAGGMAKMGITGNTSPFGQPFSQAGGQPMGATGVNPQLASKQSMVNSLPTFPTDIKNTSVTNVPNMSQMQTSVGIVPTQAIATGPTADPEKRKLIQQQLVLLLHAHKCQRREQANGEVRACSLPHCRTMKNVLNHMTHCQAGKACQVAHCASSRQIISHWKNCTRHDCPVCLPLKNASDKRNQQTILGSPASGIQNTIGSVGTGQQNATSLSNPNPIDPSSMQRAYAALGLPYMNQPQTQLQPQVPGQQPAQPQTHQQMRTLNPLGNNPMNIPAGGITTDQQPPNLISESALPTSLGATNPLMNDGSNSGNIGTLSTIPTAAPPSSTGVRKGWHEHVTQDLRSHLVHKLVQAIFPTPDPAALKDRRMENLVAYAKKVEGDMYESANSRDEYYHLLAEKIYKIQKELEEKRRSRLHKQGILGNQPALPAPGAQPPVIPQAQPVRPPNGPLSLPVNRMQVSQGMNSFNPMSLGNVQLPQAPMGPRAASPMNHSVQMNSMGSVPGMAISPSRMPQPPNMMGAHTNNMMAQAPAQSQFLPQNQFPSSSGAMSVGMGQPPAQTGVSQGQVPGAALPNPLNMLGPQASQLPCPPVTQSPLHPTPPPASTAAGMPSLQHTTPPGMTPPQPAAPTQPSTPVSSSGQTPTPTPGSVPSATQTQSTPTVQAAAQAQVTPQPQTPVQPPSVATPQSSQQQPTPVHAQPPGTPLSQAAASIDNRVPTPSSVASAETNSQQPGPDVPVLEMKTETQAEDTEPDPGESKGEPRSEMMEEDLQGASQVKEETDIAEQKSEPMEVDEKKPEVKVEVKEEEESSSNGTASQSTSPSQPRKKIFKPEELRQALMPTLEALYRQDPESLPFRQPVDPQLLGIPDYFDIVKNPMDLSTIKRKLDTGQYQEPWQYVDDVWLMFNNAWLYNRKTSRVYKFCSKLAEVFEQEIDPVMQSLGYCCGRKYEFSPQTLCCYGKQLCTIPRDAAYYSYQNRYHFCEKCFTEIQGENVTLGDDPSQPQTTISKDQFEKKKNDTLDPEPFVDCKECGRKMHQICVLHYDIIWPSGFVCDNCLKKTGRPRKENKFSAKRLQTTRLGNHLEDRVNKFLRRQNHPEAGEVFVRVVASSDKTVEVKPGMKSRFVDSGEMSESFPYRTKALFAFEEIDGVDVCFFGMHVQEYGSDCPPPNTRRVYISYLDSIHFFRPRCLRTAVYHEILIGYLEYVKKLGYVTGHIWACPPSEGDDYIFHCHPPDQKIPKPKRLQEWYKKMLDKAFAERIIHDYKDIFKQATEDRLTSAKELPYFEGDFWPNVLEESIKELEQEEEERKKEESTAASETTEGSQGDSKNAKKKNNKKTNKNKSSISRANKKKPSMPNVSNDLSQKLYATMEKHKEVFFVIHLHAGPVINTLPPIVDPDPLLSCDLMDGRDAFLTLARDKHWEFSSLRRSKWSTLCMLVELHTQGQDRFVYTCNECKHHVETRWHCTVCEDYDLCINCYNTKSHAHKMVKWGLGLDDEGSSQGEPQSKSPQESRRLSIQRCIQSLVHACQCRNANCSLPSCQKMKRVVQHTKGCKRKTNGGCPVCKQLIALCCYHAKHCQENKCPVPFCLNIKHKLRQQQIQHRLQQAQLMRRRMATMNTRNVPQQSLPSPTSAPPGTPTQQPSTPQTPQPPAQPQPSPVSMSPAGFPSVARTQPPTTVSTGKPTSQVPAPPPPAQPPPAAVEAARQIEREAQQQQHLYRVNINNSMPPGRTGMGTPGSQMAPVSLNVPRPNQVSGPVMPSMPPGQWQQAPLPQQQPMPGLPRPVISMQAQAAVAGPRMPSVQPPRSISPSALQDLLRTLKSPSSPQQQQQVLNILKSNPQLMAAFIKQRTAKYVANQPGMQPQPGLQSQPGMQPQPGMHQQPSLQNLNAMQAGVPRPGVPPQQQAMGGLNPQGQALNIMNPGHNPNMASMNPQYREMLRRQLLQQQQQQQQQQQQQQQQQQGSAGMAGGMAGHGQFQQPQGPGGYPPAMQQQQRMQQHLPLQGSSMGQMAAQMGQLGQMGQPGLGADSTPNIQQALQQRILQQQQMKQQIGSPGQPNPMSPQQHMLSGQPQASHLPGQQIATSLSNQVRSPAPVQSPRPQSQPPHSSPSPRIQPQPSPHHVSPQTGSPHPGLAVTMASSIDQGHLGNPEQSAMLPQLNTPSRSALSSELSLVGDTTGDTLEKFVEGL

[34] = target: T2, Bromodomain-containing protein 4; details: Compound concentration 10.0 uM, Protein concentration 2.0 uM
[35] = target: Nuclear body protein SP140 (Homo sapiens) (UniProt Q13342); details: Compound concentration 10.0 uM, Protein concentration 2.0 uM
[36] = target: Protein polybromo-1 (Homo sapiens) (UniProt Q86U86); assay: Thermal Shift Assay. Domain start/stop: H23-D159; details: Compound concentration 10.0 uM, Protein concentration 2.0 uM
[37] = target: Histone-lysine N-methyltransferase ASH1L (Homo sapiens) (UniProt Q9NR48); details: Compound concentration 10.0 uM, Protein concentration 2.0 uM
[38] = target: ATPase family AAA domain-containing protein 2 (Homo sapiens) (UniProt Q6PL18); details: Compound concentration 10.0 uM, Protein concentration 2.0 uM
[39] = target: Transcription intermediary factor 1-beta (Homo sapiens) (UniProt Q13263); details: Compound concentration 10.0 uM, Protein concentration 2.0 uM
[40] = target: Histone acetyltransferase KAT2A (Homo sapiens) (UniProt Q92830); details: Compound concentration 10.0 uM, Protein concentration 2.0 uM
[41] = target: Bromodomain-containing protein 2 (Homo sapiens) (UniProt P25440); details: Compound concentration 10.0 uM, Protein concentration 2.0 uM; remark: listed apart in the source
[42] = target: Bromodomain adjacent to zinc finger domain protein 2A (Homo sapiens) (UniProt Q9UIF9); details: Compound concentration 10.0 uM, Protein concentration 2.0 uM
[43] = target: Protein polybromo-1 (Homo sapiens) (UniProt Q86U86); details: Compound concentration 10.0 uM, Protein concentration 2.0 uM; remark: listed apart in the source
[44] = target: Transcription initiation factor TFIID subunit 1 (Homo sapiens) (UniProt P21675); details: Compound concentration 10.0 uM, Protein concentration 2.0 uM; remark: listed apart in the source
[45] = target: PH-interacting protein (Homo sapiens) (UniProt Q8WWQ0); details: Compound concentration 50.0 uM, Protein concentration 0.025 uM
[46] = target: Bromodomain and PHD finger-containing protein 3 (Homo sapiens) (UniProt Q9ULD4); details: Compound concentration 10.0 uM, Protein concentration 2.0 uM

SMILES: CCC(=O)N1CCOc2c(cc(-c3ccc(OC)c(OC)c3)cc2OC[C@H]2CCCN(C)C2)C1
- ΔTm [1]: 0.19 °C
- ΔTm [2]: 1.11 °C
- ΔTm [3]: 1.01 °C and 1.27 °C
- ΔTm [4]: 1.86 °C
- ΔTm [5]: 0.65 °C
- ΔTm [6]: 0.59 °C
- ΔTm [7]: 0.65 °C
- ΔTm [8]: 0.53 °C
- ΔTm [9]: 1.83 °C
- IC50 [10]: 324 nM
- ΔTm [11]: 0.56 °C
- ΔTm [12]: 0.37 °C
- ΔTm [13]: 0.3 °C
- ΔTm [14]: 1.3 °C
- ΔTm [15]: 0.93 °C
- ΔTm [16]: 1.35 °C and 2.27 °C
- ΔTm [17]: 8.99 °C
- ΔTm [18]: 0.28 °C
- ΔTm [19]: 0.86 °C
- ΔTm [20]: 0.11 °C and 0.34 °C
- ΔTm [21]: 0.73 °C
- ΔTm [22]: 0.16 °C
- ΔTm [23]: -0.05 °C
- ΔTm [24]: 0.75 °C
- IC50 [25]: 2460 nM
- ΔTm [26]: 0.3 °C
- ΔTm [27]: 1.07 °C
- ΔTm [28]: 0.4 °C and 0.01 °C
- ΔTm [29]: -0.01 °C and 0.36 °C
- ΔTm [30]: 0.86 °C
- ΔTm [31]: 2.1 °C and 1.08 °C
- ΔTm [32]: 0.77 °C
- ΔTm [33]: 6.8 °C and 8.01 °C and 8.5 °C
- ΔTm [34]: 0.77 °C and 0.68 °C
- ΔTm [35]: 0.16 °C
- ΔTm [36]: 1.87 °C
- ΔTm [37]: 0.59 °C
- ΔTm [38]: 0.94 °C
- ΔTm [39]: 0.1 °C
- ΔTm [40]: 0.84 °C
- ΔTm [41]: 1.23 °C
- ΔTm [42]: 0.84 °C
- ΔTm [43]: 0.34 °C
- ΔTm [44]: 0.18 °C
- inhibition [45]: 11.6% and 13.1%
- ΔTm [46]: 0.92 °C
